Reference: patent US12660819B2, “Herbicidal derivatives” (SYNGENTA CROP PROTECTION AG, priority 2020, dated 2026)

Legend:
Format in all cases: in vivo
[1] = test system: Amaranthus retoflexus (AMARE); assay: Post-emergence Test (glasshouse, percentage damage to the plant); details: post-emergence spray, 1000 g/ha unless otherwise stated, evaluated after 13 days
Protocol: (§1) Seeds of a variety of test species are sown in standard soil in pots (Amaranthus retoflexus (AMARE), Solanum nigrum (SOLNI), Setaria faberi (SETFA), Lolium perenne (LOLPE), Echinochloa crus-galli (ECHCG), Ipomoea hederacea (IPOHE), Abutilon theophrasti (ABUTH), Zea mays (ZEAMX), Amaranthus palmeri (AMAPA). After 8 days cultivation under controlled conditions in a glasshouse (at 24° C./16° C., day/night; 14 hours light; 65% humidity), the plants are sprayed with an aqueous spray solution derived from the formulation of the technical active ingredient in acetone/water (50:50) solution containing 0.5% Tween 20 (polyoxyethelyene sorbitan monolaurate, CAS RN 9005-64-5). Compounds are applied at 1000 g/ha unless otherwise stated. The test plants are then grown in a glasshouse under controlled conditions in a glasshouse (at 24° C./16° C., day/night; 14 hours light; 65% humidity) and watered twice daily. After 13 days the test is evaluated for the percentage damage caused to the plant. The biological activities are shown in the following table on a five-point scale (5=81-100%; 4=61-80%; 3=41-60%; 2=21-40%; 1=0-20%).

[2] = test system: Ipomoea hederacea (IPOHE); assay: as above; details: post-emergence spray, 1000 g/ha unless otherwise stated, evaluated after 13 days
Protocol: as §1

Setaria faberi (SETFA) [3] = assay: as above; details: post-emergence spray, 1000 g/ha unless otherwise stated, evaluated after 13 days
Protocol: as §1

Zea mays (ZEAMX) [4] = assay: as above; details: post-emergence spray, 1000 g/ha unless otherwise stated, evaluated after 13 days
Protocol: as §1

[5] = test system: Amaranthus retoflexus (AMARE); assay: Pre-emergence Test (glasshouse, percentage damage to the plant); details: 1000 g/ha unless otherwise stated, five-point scale
Setaria faberi (SETFA) [6] = assay: as above; details: 1000 g/ha unless otherwise stated, five-point scale
[7] = test system: Echinochloa crus-galli (ECHCG); assay: as above; details: 1000 g/ha unless otherwise stated, five-point scale
[8] = test system: Ipomoea hederacea (IPOHE); assay: as above; details: 1000 g/ha unless otherwise stated, five-point scale
[9] = test system: Abutilon theophrasti (ABUTH); assay: as above; details: 1000 g/ha unless otherwise stated, five-point scale
Zea mays (ZEAMX) [10] = assay: as above; details: 1000 g/ha unless otherwise stated, five-point scale

| SMILES | Post-emergence Test AMARE, percentage damage to the plant (five-point scale) [1] | Post-emergence Test IPOHE, percentage damage to the plant (five-point scale) [2] | Post-emergence Test SETFA, percentage damage to the plant (five-point scale) (Setaria faberi (SETFA) [3]) | Post-emergence Test ZEAMX, percentage damage to the plant (five-point scale) (Zea mays (ZEAMX) [4]) | percentage damage to the plant, AMARE [5] | percentage damage to the plant, SETFA (Setaria faberi (SETFA) [6]) | percentage damage to the plant, ECHCG [7] | percentage damage to the plant, IPOHE [8] | percentage damage to the plant, ABUTH [9] | percentage damage to the plant, ZEAMX (Zea mays (ZEAMX) [10]) |
| --- | --- | --- | --- | --- | --- | --- | --- | --- | --- | --- |
| CCn1c(C)c(-c2ccc(Cl)c(C#N)c2)c(=O)c(C(=O)O)c1-c1ccc(Cl)cc1 [Compound 196, 5-(4-chloro-3-cyano-phenyl)-2-(4-chlorophenyl)-1-ethyl-6-methyl-4-oxo-pyridine-3-carboxylic acid] | 3 (3=41-60%) | 3 (3=41-60%) | 3 (3=41-60%) | 2 (2=21-40%) | 1 (1=0-20%) | 1 (1=0-20%) | 2 (2=21-40%) | 1 (1=0-20%) | 0 | 0 |
| CCn1c(C)c(-c2ccc(Cl)cc2OC)c(=O)c(C(=O)O)c1-c1ccc(Cl)cc1 [Compound 184, 5-(4-chloro-2-methoxy-phenyl)-2-(4-chlorophenyl)-1-ethyl-6-methyl-4-oxo-pyridine-3-carboxylic acid] | 4 (4=61-80%) | 3 (3=41-60%) | 5 (5=81-100%) | 3 (3=41-60%) | 1 (1=0-20%) | 1 (1=0-20%) | 1 (1=0-20%) | 0 | 1 (1=0-20%) | 0 |
| CCn1c(C)c(-c2cc(Cl)cc(Cl)c2)c(=O)c(C(=O)O)c1-c1ccc(Cl)cc1 [Compound 188, 2-(4-chlorophenyl)-5-(3,5-dichlorophenyl)-1-ethyl-6-methyl-4-oxo-pyridine-3-carboxylic acid] | 0 | 1 (1=0-20%) | 0 | 1 (1=0-20%) | 0 | 0 | 0 | 0 | 0 | 0 |
| CCn1c(C)c(-c2ccc(F)cc2OC)c(=O)c(C(=O)O)c1-c1ccc(Cl)cc1 [Compound 186, 2-(4-chlorophenyl)-1-ethyl-5-(4-fluoro-2-methoxy-phenyl)-6-methyl-4-oxo-pyridine-3-carboxylic acid] | 1 (1=0-20%) | 2 (2=21-40%) | 3 (3=41-60%) | 2 (2=21-40%) | 1 (1=0-20%) | 2 (2=21-40%) | 1 (1=0-20%) | 1 (1=0-20%) | 3 (3=41-60%) | 0 |
| CCn1c(C)c(-c2cccc(C(F)(F)F)c2)c(=O)c(C(=O)O)c1-c1ccnc(Cl)c1 [Compound 145, 2-(2-chloro-4-pyridyl)-1-ethyl-6-methyl-4-oxo-5-[3-(trifluoromethyl)phenyl] pyridine-3-carboxylic acid] | 1 (1=0-20%) | 2 (2=21-40%) | 3 (3=41-60%) | 1 (1=0-20%) | 1 (1=0-20%) | 3 (3=41-60%) | 2 (2=21-40%) | 0 | 1 (1=0-20%) | 0 |
| CCn1c(C)c(-c2ccc(Cl)c(Cl)c2)c(=O)c(C(=O)O)c1-c1ccc(Cl)cc1 [Compound 195, 2-(4-chlorophenyl)-5-(3,4-dichlorophenyl)-1-ethyl-6-methyl-4-oxo-pyridine-3-carboxylic acid] | 4 (4=61-80%) | 3 (3=41-60%) | 2 (2=21-40%) | 2 (2=21-40%) | 2 (2=21-40%) | 1 (1=0-20%) | 2 (2=21-40%) | 0 | 0 | 0 |
| CCn1c(C)c(-c2cccc(C(F)(F)F)c2F)c(=O)c(C(=O)O)c1-c1ccc(Cl)cc1 [Compound 181, 2-(4-chlorophenyl)-1-ethyl-5-[2-fluoro-3-(trifluoromethyl)phenyl]-6-methyl-4-oxo-pyridine-3-carboxylic acid] | 3 (3=41-60%) | 2 (2=21-40%) | 3 (3=41-60%) | 1 (1=0-20%) | 1 (1=0-20%) | 5 (5=81-100%) | 4 (4=61-80%) | 4 (4=61-80%) | 4 (4=61-80%) | 2 (2=21-40%) |
| CCn1c(C)c(-c2ccc(C(F)(F)F)cc2)c(=O)c(C(=O)O)c1-c1ccnc(Cl)c1 [Compound 140, 2-(2-chloro-4-pyridyl)-1-ethyl-6-methyl-4-oxo-5-[4-(trifluoromethyl)phenyl] pyridine-3-carboxylic acid] | 1 (1=0-20%) | 3 (3=41-60%) | 4 (4=61-80%) | 1 (1=0-20%) | 1 (1=0-20%) | 2 (2=21-40%) | 2 (2=21-40%) | 1 (1=0-20%) | 1 (1=0-20%) | 0 |
